We go through two molecules from paper PMC9485059 (iScience, 2022).

Experiment [1] concerns the target T1, BAK (Homo sapiens, UniProt Q16611).
T1 sequence (Q16611 15-186): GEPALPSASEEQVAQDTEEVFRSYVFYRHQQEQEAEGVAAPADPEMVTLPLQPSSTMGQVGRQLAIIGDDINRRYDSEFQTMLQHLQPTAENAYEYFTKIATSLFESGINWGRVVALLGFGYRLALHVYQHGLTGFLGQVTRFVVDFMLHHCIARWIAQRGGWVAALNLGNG
As to the kind of experiment: ligand-based 1D-NMR, […] 2D-NMR titration, competitive TR-FRET, nanoDSF. The experiment is classed as binding. For orientation: In TR-FRET formats the signal depends on donor and acceptor labels being close together.

For experiment [2], the target named is T1, BAK. As to the kind of experiment: ligand-based 1D-NMR. Type of experiment: binding.

The molecule `Cc1ccc(C)c2sc(N)nc12` [A3] displayed an IC50 on BAK [1] of 1970 µM.

Take `Cc1ccc(Cl)c2sc(N)nc12` [H6, SJ572946]: half-maximal inhibition at BAK [2] (IC50) required 570 µM.

What is called IC50 is the midpoint of a concentration-inhibition curve. The low end stands for greater potency in that assay, the high end for weaker potency in that assay.
